Measured values taken from ChEMBL document CHEMBL1201862, “PubChem BioAssay data set” (2004).
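48-hour exposure; five concentrations; linearly interpolated endpoints. The concentration for 50% growth inhibition is given as GI50.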 Activity calls are given as the source filed them. Rule as the data show it: active = GI50 up to about 1.1 µM and inactive = higher.

How the values were obtained:
Assay in all cases: growth of human tumour cells (NCI), 48 h
U-251 = test system: U-251
SW-620 = test system: SW-620
M14 = test system: M14
KM12 = test system: KM12
HCC 2998 = test system: HCC 2998
SF-539 = test system: SF-539
CCRF-CEM = test system: CCRF-CEM
SNB-19 = test system: SNB-19
UACC-257 = test system: UACC-257
NCI-H226 = test system: NCI-H226
SK-MEL-28 = test system: SK-MEL-28
786-0 = test system: 786-0
OVCAR-8 = test system: OVCAR-8
SF-295 = test system: SF-295
OVCAR-4 = test system: OVCAR-4
SK-MEL-5 = test system: SK-MEL-5
CAKI-1 = test system: CAKI-1
SK-MEL-2 = test system: SK-MEL-2
OVCAR-5 = test system: OVCAR-5

Measured: GI50

CN(C)c1ccc(-c2cc(O)c3ccccc3n2)cc1
inactive: U-251 > 100 µM | SW-620 > 100 µM | M14 > 100 µM | KM12 > 100 µM | HCC 2998 > 100 µM | SF-539 > 100 µM | CCRF-CEM > 100 µM | SNB-19 > 100 µM | UACC-257 > 100 µM | NCI-H226 > 100 µM | SK-MEL-28 > 100 µM | 786-0 > 100 µM | OVCAR-8 > 100 µM | SF-295 > 100 µM

CN1CCc2c1nc(-c1cccnc1)c1c2N(C)CC1
inactive: U-251 > 100 µM | OVCAR-4 > 100 µM | SW-620 > 100 µM | M14 > 100 µM | KM12 > 100 µM | HCC 2998 > 100 µM | SF-539 > 100 µM | CCRF-CEM > 100 µM | SNB-19 > 100 µM | SK-MEL-5 > 100 µM | CAKI-1 > 100 µM | SK-MEL-2 > 100 µM | UACC-257 > 100 µM | OVCAR-5 > 100 µM | 786-0 > 100 µM | OVCAR-8 > 100 µM | SF-295 > 100 µM

Cc1ccccc1C1=C(C(=O)Nc2ccc(Cl)c(Cl)c2)NC(=S)NC1N (stereo not given)
inactive: U-251 > 100 µM | OVCAR-4 > 100 µM | SW-620 > 100 µM | M14 > 100 µM | KM12 > 100 µM | SF-539 > 100 µM | CCRF-CEM > 100 µM | SNB-19 > 100 µM | SK-MEL-5 > 100 µM | CAKI-1 > 100 µM | SK-MEL-2 > 100 µM | UACC-257 > 100 µM | OVCAR-5 82.6 µM | SK-MEL-28 > 100 µM | 786-0 > 100 µM | OVCAR-8 > 100 µM

Cc1ccccc1C1=[N+]([O-])c2ccccc2C1=O
inactive: U-251 16.9 µM | SW-620 26.4 µM | M14 18.4 µM | KM12 13.2 µM | SF-539 19.1 µM | CCRF-CEM 18.5 µM | SNB-19 46.1 µM | SK-MEL-5 16.8 µM | SK-MEL-2 3.22 µM | UACC-257 14.7 µM | OVCAR-5 27.6 µM | NCI-H226 16.3 µM | SK-MEL-28 20.7 µM | 786-0 17.4 µM | OVCAR-8 16.7 µM | SF-295 23.7 µM

C/C=C1\CN2CCc3c([nH]c4ccccc34)C2CC1CCO (stereo not given)
inactive: U-251 > 100 µM | OVCAR-4 > 100 µM | SW-620 > 100 µM | M14 > 100 µM | KM12 > 100 µM | HCC 2998 > 100 µM | SF-539 > 100 µM | CCRF-CEM > 100 µM | SNB-19 > 100 µM | SK-MEL-5 > 100 µM | SK-MEL-2 > 100 µM | UACC-257 > 100 µM | OVCAR-5 > 100 µM | NCI-H226 > 100 µM | SK-MEL-28 > 100 µM | 786-0 > 100 µM | OVCAR-8 > 100 µM | SF-295 > 100 µM

COc1ccc(C2C3=C(COC3=O)Oc3cc4c(cc32)OCO4)cc1 (stereo not given)
inactive: U-251 23.9 µM | OVCAR-4 27.3 µM | SW-620 6.21 µM | M14 17.7 µM | SF-539 19.4 µM | CCRF-CEM 6.46 µM | SNB-19 61.4 µM | SK-MEL-5 11.7 µM | CAKI-1 7.53 µM | SK-MEL-2 47.1 µM | UACC-257 39.3 µM | SK-MEL-28 47.9 µM | 786-0 27.2 µM | OVCAR-8 36.2 µM | SF-295 5.15 µM

Cc1oc2c(C)c(O)c3c(c2c1C1(C)OCCO1)C(=O)C=C(Cl)C3=O
inactive: U-251 > 100 µM | OVCAR-4 > 100 µM | SW-620 > 100 µM | M14 > 100 µM | KM12 > 100 µM | SF-539 > 100 µM | CCRF-CEM > 100 µM | SNB-19 > 100 µM | SK-MEL-5 > 100 µM | CAKI-1 > 100 µM | SK-MEL-2 > 100 µM | UACC-257 > 100 µM | OVCAR-5 > 100 µM | NCI-H226 > 100 µM | SK-MEL-28 > 100 µM | 786-0 > 100 µM | OVCAR-8 > 100 µM | SF-295 > 100 µM

O=c1c(Cc2ccccc2)c(O)cc2n1CCC2
inactive: U-251 > 100 µM | OVCAR-4 > 100 µM | SW-620 > 100 µM | M14 > 100 µM | KM12 > 100 µM | HCC 2998 > 100 µM | SF-539 > 100 µM | CCRF-CEM 41.5 µM | SNB-19 > 100 µM | SK-MEL-5 > 100 µM | CAKI-1 > 100 µM | UACC-257 > 100 µM | OVCAR-5 > 100 µM | NCI-H226 > 100 µM | SK-MEL-28 > 100 µM | 786-0 > 100 µM | OVCAR-8 > 100 µM | SF-295 > 100 µM

CN(C)CCN(C)C(=O)C1CCCN1C(=O)OCc1ccccc1 (stereo not given)
inactive: U-251 > 100 µM | OVCAR-4 > 100 µM | SW-620 > 100 µM | M14 > 100 µM | HCC 2998 > 100 µM | SF-539 > 100 µM | CCRF-CEM 19.4 µM | SNB-19 > 100 µM | SK-MEL-5 > 100 µM | SK-MEL-2 > 100 µM | UACC-257 > 100 µM | OVCAR-5 > 100 µM | NCI-H226 > 100 µM | SK-MEL-28 > 100 µM | 786-0 > 100 µM | OVCAR-8 > 100 µM | SF-295 > 100 µM

O=C(c1ccccc1)c1c(C(=O)c2ccccc2)c(-c2ccccc2)c2c(-c3ccccc3)sc(-c3ccccc3)c2c1-c1ccccc1
inactive: U-251 > 100 µM | OVCAR-4 > 100 µM | SW-620 > 100 µM | M14 > 100 µM | KM12 > 100 µM | HCC 2998 > 100 µM | SF-539 > 100 µM | CCRF-CEM > 100 µM | SNB-19 > 100 µM | SK-MEL-5 > 100 µM | CAKI-1 > 100 µM | UACC-257 > 100 µM | OVCAR-5 > 100 µM | NCI-H226 > 100 µM | SK-MEL-28 > 100 µM | 786-0 > 100 µM | OVCAR-8 > 100 µM | SF-295 > 100 µM

N#CC12Cc3cc4c(cc3-c3cccc(c31)CCN2C(=O)c1ccccc1)OCO4 (stereo not given)
inactive: U-251 > 100 µM | SW-620 > 100 µM | M14 > 100 µM | KM12 > 100 µM | HCC 2998 > 100 µM | SF-539 > 100 µM | CCRF-CEM > 100 µM | SNB-19 68.1 µM | SK-MEL-5 > 100 µM | SK-MEL-2 > 100 µM | UACC-257 > 100 µM | OVCAR-5 > 100 µM | NCI-H226 > 100 µM | SK-MEL-28 > 100 µM | 786-0 > 10 µM | OVCAR-8 65.3 µM | SF-295 > 100 µM

COc1ccc(N2C(=O)C3c4[nH]c5ccccc5c4C4CC(C)CC(C)C4C3C2=O)cc1 (stereo not given)
inactive: U-251 > 100 µM | OVCAR-4 > 100 µM | SW-620 > 100 µM | M14 > 100 µM | HCC 2998 > 100 µM | SF-539 > 100 µM | CCRF-CEM > 100 µM | SNB-19 > 100 µM | SK-MEL-5 > 100 µM | UACC-257 > 100 µM | NCI-H226 > 100 µM | SK-MEL-28 > 100 µM | 786-0 > 100 µM | OVCAR-8 > 100 µM | SF-295 > 100 µM

COc1ccc(-c2nc3ccccc3s2)cc1OC
inactive: U-251 53.8 µM | OVCAR-4 46.6 µM | SW-620 > 100 µM | M14 94.4 µM | KM12 30.2 µM | SF-539 54.6 µM | CCRF-CEM 76.9 µM | SNB-19 4.75 µM | SK-MEL-5 10.5 µM | SK-MEL-2 > 100 µM | UACC-257 > 100 µM | OVCAR-5 > 100 µM | SK-MEL-28 > 100 µM | 786-0 44.6 µM | OVCAR-8 63.4 µM | SF-295 25.8 µM

O=S1(=O)C[C@H](O)[C@H](O)CS1
inactive: U-251 > 100 µM | OVCAR-4 > 100 µM | SW-620 > 100 µM | M14 > 100 µM | KM12 > 100 µM | HCC 2998 > 100 µM | SF-539 > 100 µM | SNB-19 > 100 µM | SK-MEL-5 > 100 µM | CAKI-1 > 100 µM | UACC-257 > 100 µM | OVCAR-5 > 100 µM | NCI-H226 > 100 µM | SK-MEL-28 > 100 µM | 786-0 > 100 µM | OVCAR-8 > 100 µM | SF-295 > 100 µM

COc1ccccc1/C=C\c1cc(OC)c(OC)c(OC)c1
inactive: U-251 6.03 µM | OVCAR-4 25.8 µM | SW-620 3.85 µM | M14 5.85 µM | KM12 6.89 µM | SF-539 6.4 µM | CCRF-CEM 16.7 µM | SNB-19 39.4 µM | SK-MEL-5 4.33 µM | CAKI-1 8.22 µM | UACC-257 31.6 µM | OVCAR-5 34 µM | NCI-H226 19.2 µM | SK-MEL-28 33.9 µM | 786-0 31.2 µM | OVCAR-8 24.5 µM | SF-295 4.83 µM

BrC(Br)([P+](c1ccccc1)(c1ccccc1)c1ccccc1)[P+](c1ccccc1)(c1ccccc1)c1ccccc1
inactive: U-251 20.3 µM | OVCAR-4 12.1 µM | SW-620 12.2 µM | M14 18.5 µM | HCC 2998 17.4 µM | SF-539 13.6 µM | SK-MEL-5 15.9 µM | CAKI-1 7.98 µM | SK-MEL-2 16.5 µM | UACC-257 19.5 µM | OVCAR-5 21.6 µM | NCI-H226 20.3 µM | SK-MEL-28 16.6 µM | 786-0 13.5 µM | OVCAR-8 13.1 µM | SF-295 29.4 µM
